{
  "source": "ChEMBL document CHEMBL4406883",
  "about": "“Synthesis and structure-activity relationships of novel camphecene analogues as anti-influenza agents” (Bioorg Med Chem Lett, 2019)",
  "key": {"[1]": {"test_system": "Influenza A virus (A/Puerto Rico/8/1934(H1N1))", "assay_type": "functional, organism-based, pdm09"}, "[2]": {"test": "in vitro", "conditions": "dog, MDCK cells", "description": "Selectivity index, ratio of CTD50 for dog MDCK cells to IC50 for Influenza A virus (A/Puerto Rico/8/34 (H1N1)) pdm09 infected in MDCK cells"}, "[3]": {"test": "Cytotoxicity against dog MDCK cells assessed as cell death incubated for 48 hrs by MTT assay", "assay_type": "cell-based, Canis lupus familiaris", "conditions": "read-out: CTD50"}, "[4]": {"test_system": "Influenza A virus (A/Puerto Rico/8/1934(H1N1))", "assay_type": "functional, organism-based", "conditions": "pdm09, 300 umol/l"}, "[5]": {"test_system": "Influenza A virus (A/Puerto Rico/8/1934(H1N1))", "assay_type": "functional, organism-based", "conditions": "pdm09, 300 umol/l", "remark": "listed apart in the source"}, "[6]": {"conditions": "Influenza A virus, pdm09, MDCK, read-out: IC50"}},
  "note": "Active and inactive are the calls of the source. No cut-off for these calls is given here.",
  "data": [
    {"smiles": "CC1(C)[C@@H]2CC[C@@]1(C)/C(=N/CCN1CCCC1)C2", "values": [
      {"measurement": "IC50", "setting": "[1]; [6]", "result": 12, "unit": "µM"},
      {"measurement": "selectivity ratio", "setting": "[2]", "result": 106},
      {"measurement": "CC50 at 48 h", "setting": "[3]", "result": "> 1260", "unit": "µM"}
    ]},
    {"smiles": "CC1(C)[C@@H]2CC[C@@]1(C)/C(=N/CCSc1nc3ccccc3s1)C2", "values": [
      {"measurement": "IC50", "setting": "[1]; [6]", "result": 19, "unit": "µM"},
      {"measurement": "selectivity ratio", "setting": "[2]", "result": 20},
      {"measurement": "CC50 at 48 h", "setting": "[3]", "result": 383, "unit": "µM"}
    ]},
    {"smiles": "CC1(C)[C@@H]2CC[C@@]1(C)/C(=N/CCSc1ccccn1)C2", "values": [
      {"measurement": "IC50", "setting": "[1]; [6]", "result": 6, "unit": "µM"},
      {"measurement": "selectivity ratio", "setting": "[2]", "result": 91},
      {"measurement": "CC50 at 48 h", "setting": "[3]", "result": 503, "unit": "µM"}
    ]},
    {"smiles": "CC1(C)[C@@H]2CC[C@@]1(C)/C(=N/CCSc1ncccn1)C2", "values": [
      {"measurement": "IC50", "setting": "[1]; [6]", "result": 6, "unit": "µM"},
      {"measurement": "selectivity ratio", "setting": "[2]", "result": 183},
      {"measurement": "inhibition", "setting": "[4]", "result": "inactive"},
      {"measurement": "inhibition", "setting": "[5]", "result": "Active"},
      {"measurement": "CC50 at 48 h", "setting": "[3]", "result": "> 1020", "unit": "µM"}
    ]},
    {"smiles": "CC1(C)[C@@H]2CC[C@@]1(C)/C(=N/CCN1CCCCC1)C2", "values": [
      {"measurement": "IC50", "setting": "[1]; [6]", "result": 27, "unit": "µM"},
      {"measurement": "selectivity ratio", "setting": "[2]", "result": 43},
      {"measurement": "CC50 at 48 h", "setting": "[3]", "result": "> 1140", "unit": "µM"}
    ]},
    {"smiles": "CC1CCN(CC/N=C2\\C[C@H]3CC[C@]2(C)C3(C)C)CC1", "values": [
      {"measurement": "IC50", "setting": "[1]; [6]", "result": 25, "unit": "µM"},
      {"measurement": "selectivity ratio", "setting": "[2]", "result": 12},
      {"measurement": "CC50 at 48 h", "setting": "[3]", "result": 294, "unit": "µM"}
    ]},
    {"smiles": "CC1(C)[C@@H]2CC[C@@]1(C)/C(=N/CCSc1ccc(Cl)cc1)C2", "values": [
      {"measurement": "IC50", "setting": "[1]; [6]", "result": 47, "unit": "µM"},
      {"measurement": "selectivity ratio", "setting": "[2]", "result": 4},
      {"measurement": "CC50 at 48 h", "setting": "[3]", "result": 170, "unit": "µM"}
    ]},
    {"smiles": "CCN1CCN(CC/N=C2\\C[C@H]3CC[C@]2(C)C3(C)C)CC1", "values": [
      {"measurement": "IC50", "setting": "[1]; [6]", "result": 101, "unit": "µM"},
      {"measurement": "selectivity ratio", "setting": "[2]", "result": 2},
      {"measurement": "CC50 at 48 h", "setting": "[3]", "result": 222, "unit": "µM"}
    ]},
    {"smiles": "CC1(C)[C@@H]2CC[C@@]1(C)/C(=N/CCSc1nnc[nH]1)C2", "values": [
      {"measurement": "IC50", "setting": "[1]; [6]", "result": 24, "unit": "µM"},
      {"measurement": "selectivity ratio", "setting": "[2]", "result": 8},
      {"measurement": "CC50 at 48 h", "setting": "[3]", "result": 197, "unit": "µM"}
    ]},
    {"smiles": "CC1(C)[C@@H]2CC[C@@]1(C)/C(=N/CCSC1=NCCS1)C2", "values": [
      {"measurement": "IC50", "setting": "[1]; [6]", "result": 33, "unit": "µM"},
      {"measurement": "selectivity ratio", "setting": "[2]", "result": 23},
      {"measurement": "CC50 at 48 h", "setting": "[3]", "result": 753, "unit": "µM"}
    ]},
    {"smiles": "NC(=O)c1ncn([C@@H]2O[C@H](CO)[C@@H](O)[C@H]2O)n1", "note": "[RIBAVIRIN]", "values": [
      {"measurement": "IC50", "setting": "[1]; [6]", "result": 25, "unit": "µM"},
      {"measurement": "selectivity ratio", "setting": "[2]", "result": "> 81"},
      {"measurement": "CC50 at 48 h", "setting": "[3]", "result": "> 2000", "unit": "µM"}
    ]},
    {"smiles": "CC1(C)[C@@H]2CC[C@@]1(C)/C(=N/CCO)C2", "values": [
      {"measurement": "IC50", "setting": "[1]; [6]", "result": 5000, "unit": "µM"},
      {"measurement": "selectivity ratio", "setting": "[2]", "result": 500}
    ]},
    {"smiles": "Cn1ccnc1SCC/N=C1\\C[C@H]2CC[C@]1(C)C2(C)C", "values": [
      {"measurement": "IC50", "setting": "[1]; [6]", "result": 341, "unit": "µM"},
      {"measurement": "selectivity ratio", "setting": "[2]", "result": 3},
      {"measurement": "CC50 at 48 h", "setting": "[3]", "result": 1130, "unit": "µM"}
    ]},
    {"smiles": "NC12CC3CC(CC(C3)C1)C2", "note": "[AMANTADINE]", "values": [
      {"measurement": "IC50", "setting": "[1]; [6]", "result": 64, "unit": "µM"},
      {"measurement": "selectivity ratio", "setting": "[2]", "result": 4}
    ]},
    {"smiles": "CN1CCN(CC/N=C2\\C[C@H]3CC[C@]2(C)C3(C)C)CC1", "values": [
      {"measurement": "IC50", "setting": "[1]; [6]", "result": 45, "unit": "µM"},
      {"measurement": "selectivity ratio", "setting": "[2]", "result": 24},
      {"measurement": "CC50 at 48 h", "setting": "[3]", "result": 1080, "unit": "µM"}
    ]},
    {"smiles": "CC1(C)[C@@H]2CC[C@@]1(C)/C(=N/CCSc1nc3ccccc3[nH]1)C2", "values": [
      {"measurement": "IC50", "setting": "[1]; [6]", "result": 21, "unit": "µM"},
      {"measurement": "selectivity ratio", "setting": "[2]", "result": 20},
      {"measurement": "CC50 at 48 h", "setting": "[3]", "result": 406, "unit": "µM"}
    ]},
    {"smiles": "CC1(C)[C@@H]2CC[C@@]1(C)/C(=N/CCN1CCNCC1)C2", "values": [
      {"measurement": "IC50", "setting": "[1]; [6]", "result": 37, "unit": "µM"},
      {"measurement": "selectivity ratio", "setting": "[2]", "result": 33},
      {"measurement": "CC50 at 48 h", "setting": "[3]", "result": 1200, "unit": "µM"}
    ]},
    {"smiles": "CC1(C)[C@@H]2CC[C@@]1(C)/C(=N/CCN1CCC(O)CC1)C2", "values": [
      {"measurement": "IC50", "setting": "[1]", "result": "Not Active"},
      {"measurement": "selectivity ratio", "setting": "[2]", "result": 1},
      {"measurement": "CC50 at 48 h", "setting": "[3]", "result": "> 1030", "unit": "µM"}
    ]},
    {"smiles": "CC(N)C12CC3CC(CC(C3)C1)C2", "note": "(stereo unspecified) [RIMANTADINE]", "values": [
      {"measurement": "IC50", "setting": "[1]; [6]", "result": 67, "unit": "µM"},
      {"measurement": "selectivity ratio", "setting": "[2]", "result": 5}
    ]}
  ]
}
